Laboratory results: US20230096528A1, “Pharmaceutical Composition for Treatment or Prevention of Multiple Inflammatory disorders” (priority 2019, published 2023)

Tested on: diet-induced (DIO) mice
Assay: Body weight study in diet-induced (DIO) mice (Example 9)
Type: in vivo, C57BL/6NTac mice
Settings: gavage BID (DA 92.4 mg/kg, CQL 50 mg/kg)
Procedure: This example provides results of a study of DA plus another compound (CQL) on body weight in diet-induced (DIO) mice. Adult C57BL/6NTac mice were fed with a high fat diet (60%). […] The study period was for 56 days+2-3 days testing period afterward. Body weight change measure 3× per week, food and water consumption on days 0, 12, 28, 42 and 56. Metabolic biomarkers were measured on days 28 and 56. Cytokine analysis on Days 28 and 56. Serum levels of GLP-1, GLP-2, and CCK at 1 h after dosing on Days 1 and 56, and at 2 h after dosing on Day 7 (dosing (>6 h fasting prior to dosing until after blood collection); and serum level of PPY on Day 56.

Oc1c(I)cc(Cl)c2cccnc12 [CQL]
Serum HbA1c level at Day 28: significantly reduced
Serum HbA1c level at Day 56: considerably increased
Daily water intake at Day 28 (vs vehicle): significantly decreased
